Test [1] deals with AGEs. The conditions noted are these: studies in rats, beagles (oral) and mice, CN200610002391.6; cited from earlier work.
In test [2] the test system is NaCl treated diabetic rats modeled with heart failure. Description: Chronic heart failure, first batch, ultrasonic cardiogram evaluation. It counts as in vivo, rat. The conditions noted are these: 10th week of administration; valsartan 10 mg/kg, compound A 18 mg/kg ig. On the procedure:
The pharmacodynamic evaluation was conducted by using a noninvasive ultrasonic cardiogram method.
Evaluation indexes: (1) morphology indexes: left ventricular posterior wall dimensions (LVPWd), left ventricular diastasis internal diameter (LVDd), end systolic diameter (LVDs); (2) functional indexes: ejection fraction (EF), shortening fraction (FS), ventricular early blood flow filling rate (E), atrial filling rate (A) and ratio of E/A; Doppler tissue image; at cardiac apical four chamber view, the valve ring of anterior mitral valve was used as sampling point, peak early diastolic velocity (Ea peak), peak late diastolic velocity (Aa peak), and Ea/Aa ratio reflected the systolic and diastolic motion of the whole left ventricle.
SPSS statistic software was used to analyze and treat data, and all data were expressed in mean±standard deviation (Mean±SD).

SMILES strings stand for the structures.

Turning to `Cc1csc[n+]1CC(=O)OCc1ccccc1.[Br-]` [3-benzyloxycarbonylmethyl-4-methyl-thiazole-3-bromide], in test [1], the “breaking effect on AGEs” value is given as “excellent breaking effect on AGEs”.

On to `CCCCC(=O)N(Cc1ccc(-c2ccccc2-c2nnn[nH]2)cc1)[C@H](C(=O)O)C(C)C` [valsartan, reference compound], for which, in test [2], the “LVDd and LVDs vs model” value was “slight decrease”; the PWd vs model entry is given as “slight increase”.

The values above are taken from patent US8338616B2, “Thiazoliums and their use for treating protein aging associated diseases” (Beijing Molecule Science And Technology Co., Ltd., priority 2008, dated 2012).
